In USRE47689E1, “Compounds for treating spinal muscular atrophy” (PTC Therapeutics, Inc., priority 2011, dated 2019):
Like-named read-outs stand apart in the source and are kept apart here.

Key:
[1] = test system: SMN2 minigene (full length SMN2 minigene mRNA containing SMN2 exon 7); experiment: SMN2 minigene mRNA splicing RT-qPCR assay in cultured cells; format: cell-based, human; conditions: Homo sapiens, HEK293-H, read-out: EC1.5x for production of full length SMN2 mRNA
Summary of the method: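 Lysates → one-step RT-qPCR, minigene-specific primers (0.4 μM final) + GAPDH multiplex, 40 cycles. FL/GAPDH vs DMSO; EC1.5x, star-binned.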

Smn protein = Smn protein assay in cultured cells (SMN HTRF); format: cell-based, human; conditions: 48 hours; for maximum fold (Fold) increase of Smn protein: SMA patient fibroblast cells, 7-point concentration data, fold increase relative to vehicle control (SMN HTRF); for EC1.5x (concentration giving 1.5-fold Smn protein increase): SMA Type 1 patient fibroblast cells (GM03813), 7-point concentration curve, SMN HTRF, concentration producing 1.5 times Smn protein vs DMSO vehicle control, read-out: EC1.5x for Smn protein expression
Summary of the method: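 Smn in SMA fibroblast lysates, measured by anti-SMN HTRF after 48 h compound exposure; EC1.5x from fold change over vehicle.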

[2] = HEK293H cells stably transfected with SMN2-A minigene, 24 hours, 7-point concentration curve, 1.5-fold relative to vehicle-treated cells

Q: For Cc1cc(Cl)c2nc(-c3cc4ccc(N5CCN(C)CC5)cc4oc3=O)cn2c1 [Compound 343, 3-(8-chloro-6-methylimidazo[1,2-a]pyridin-2-yl)-7-(4-methylpiperazin-1-yl)-2H-chromen-2-one], which EC (1.5-fold) [1, 2] is on record?
A: 0.1 to 0.3 µM

Q: What about the melting point of the same compound?
A: 245 to 253 °C

Q: And the “maximum fold (Fold) increase of Smn protein” value (“maximum fold (Fold) increase” below) (Smn protein)?
A: * (maximum fold increase of ≤1.2)

Q: With Cc1cc(Cl)c2nc(-c3cc4ccc(N5CCCN(C)CC5)cc4oc3=O)cn2c1 [Compound 344, 3-(8-chloro-6-methylimidazo[1,2-a]pyridin-2-yl)-7-(4-methyl-1,4-diazepan-1-yl)-2H-chromen-2-one] as the compound, how does the EC (1.5-fold) [1, 2] read?
A: 0.3 to 1 µM

Q: And the melting point?
A: 224 to 230 °C

Q: And the “maximum fold (Fold) increase” value (Smn protein)?
A: ** (fold increase between >1.2 and ≤1.35)

Q: Which EC (1.5-fold) [1, 2] does the source give for CN(CCO)Cc1ccc2cc(-c3cn4ccsc4n3)c(=O)oc2c1 [Compound 345, 7-{[(2-hydroxyethyl)(methyl)amino]methyl}-3-(imidazo[2,1-b][1,3]thiazol-6-yl)-2H-chromen-2-one] here?
A: 1 to 3 µM

Q: What about the melting point of the same compound?
A: 145 to 148 °C

Q: What about the EC1.5x (concentration giving 1.5-fold Smn protein increase) (Smn protein) of the same compound?
A: 3000 to 10000 nM

Q: And the “maximum fold (Fold) increase” value (Smn protein)?
A: *** (fold increase between >1.35 and ≤1.5)

Q: Which results are given for O=c1oc2cc(CN3CCC(O)CC3)ccc2cc1-c1cn2ccsc2n1 [Compound 346, 7-[(4-hydroxypiperidin-1-yl)methyl]-3-(imidazo[2,1-b][1,3]thiazol-6-yl)-2H-chromen-2-one]?
A: EC (1.5-fold) [1, 2]: 3 to 30 µM; melting point: 248 to 252 °C; maximum fold (Fold) increase of Smn protein (Smn protein): ** (fold increase between >1.2 and ≤1.35)

Q: What does the source list for O=c1oc2cc(N3CCN(CCO)CC3)ccc2cc1-c1cn2cc(Cl)cnc2n1 [Compound 347, 3-(6-chloroimidazo[1,2-a]pyrimidin-2-yl)-7-[4-(2-hydroxyethyl)piperazin-1-yl]-2H-chromen-2-one]?
A: EC (1.5-fold) [1, 2]: 3 to 30 µM; melting point: 288 to 296 °C; maximum fold (Fold) increase of Smn protein (Smn protein): * (maximum fold increase of ≤1.2)

Q: Which EC (1.5-fold) [1, 2] does the source give for C[C@@H]1CN(c2ccc3cc(-c4cn5cc(Cl)cnc5n4)c(=O)oc3c2)C[C@H](C)N1 [Compound 349, 3-(6-chloroimidazo[1,2-a]pyrimidin-2-yl)-7-[(3R,5S)-3,5-dimethylpiperazin-1-yl]-2H-chromen-2-one] here?
A: 1 to 3 µM

Q: What about the melting point of the same compound?
A: 265 to 271 °C

Q: And the “maximum fold (Fold) increase” value (Smn protein)?
A: * (maximum fold increase of ≤1.2)

Q: What does the source list for C[C@@H]1CN(c2ccc3cc(-c4cn5cc(Cl)cnc5n4)c(=O)oc3c2)CCN1 [Compound 350, 3-(6-chloroimidazo[1,2-a]pyrimidin-2-yl)-7-[(3R)-3-methylpiperazin-1-yl]-2H-chromen-2-one]?
A: EC (1.5-fold) [1, 2]: 1 to 3 µM; melting point: 255 to 259 °C; maximum fold (Fold) increase of Smn protein (Smn protein): * (maximum fold increase of ≤1.2)

Q: Which EC (1.5-fold) [1, 2] does the source give for C[C@@H]1CN(c2cc(F)c3cc(-c4cn5cccnc5n4)c(=O)oc3c2)C[C@H](C)N1 [Compound 352, 7-[(3R,5S)-3,5-dimethylpiperazin-1-yl]-5-fluoro-3-(imidazo[1,2-a]pyrimidin-2-yl)-2H-chromen-2-one] here?
A: 0.1 to 0.3 µM

Q: What about the melting point of the same compound?
A: 290 to 292 °C

Q: What about the “maximum fold (Fold) increase” value (Smn protein) of the same compound?
A: * (maximum fold increase of ≤1.2)

Q: For Cc1cc(F)c2nc(-c3cc4ccc(N5CCN(C)CC5)cc4oc3=O)cn2c1 [Compound 353, 3-(8-fluoro-6-methylimidazo[1,2-a]pyridin-2-yl)-7-(4-methylpiperazin-1-yl)-2H-chromen-2-one], which EC (1.5-fold) [1, 2] is on record?
A: < 0.1 µM

Q: What about the melting point of the same compound?
A: 252 to 262 °C

Q: What about the EC1.5x (concentration giving 1.5-fold Smn protein increase) (Smn protein) of the same compound?
A: 1000 to 3000 nM

Q: What about the “maximum fold (Fold) increase” value (Smn protein) of the same compound?
A: **** (fold increase between >1.5 and ≤1.65)

Q: With Cc1cc(F)c2nc(-c3cc4ccc(N5C[C@@H](C)N[C@@H](C)C5)cc4oc3=O)cn2c1 [Compound 354, 7-[(3R,5S)-3,5-dimethylpiperazin-1-yl]-3-(8-fluoro-6-methylimidazo[1,2-a]pyridin-2-yl)-2H-chromen-2-one] as the compound, how does the EC (1.5-fold) [1, 2] read?
A: < 0.1 µM

Q: And the melting point?
A: 268 to 275 °C

Q: And the EC1.5x (concentration giving 1.5-fold Smn protein increase) (Smn protein)?
A: 1000 to 3000 nM

Q: And the “maximum fold (Fold) increase” value (Smn protein)?
A: *** (fold increase between >1.35 and ≤1.5)

Q: Which results are given for Cc1cc(F)c2nc(-c3cc4ccc(N5CCCN(C)CC5)cc4oc3=O)cn2c1 [Compound 355, 3-(8-fluoro-6-methylimidazo[1,2-a]pyridin-2-yl)-7-(4-methyl-1,4-diazepan-1-yl)-2H-chromen-2-one]?
A: EC (1.5-fold) [1, 2]: < 0.1 µM; melting point: 233 to 240 °C; EC1.5x (concentration giving 1.5-fold Smn protein increase) (Smn protein): 300 to 1000 nM; maximum fold (Fold) increase of Smn protein (Smn protein): **** (fold increase between >1.5 and ≤1.65)

Q: Which EC (1.5-fold) [1, 2] does the source give for Cc1cc(F)c2nc(-c3cc4ccc(N5CCNCC5)cc4oc3=O)cn2c1 [Compound 356, 3-(8-fluoro-6-methylimidazo[1,2-a]pyridin-2-yl)-7-(piperazin-1-yl)-2H-chromen-2-one] here?
A: < 0.1 µM

Q: And the melting point?
A: 276 to 286 °C

Q: What about the “maximum fold (Fold) increase” value (Smn protein) of the same compound?
A: ** (fold increase between >1.2 and ≤1.35)

Q: With O=c1oc2cc(N3CCCNCC3)ccc2cc1-c1cn2cccc(F)c2n1 [Compound 357, 7-(1,4-diazepan-1-yl)-3-(8-fluoroimidazo[1,2-a]pyridin-2-yl)-2H-chromen-2-one] as the compound, how does the EC (1.5-fold) [1, 2] read?
A: 0.1 to 0.3 µM

Q: What about the melting point of the same compound?
A: 210 to 213 °C

Q: And the “maximum fold (Fold) increase” value (Smn protein)?
A: *** (fold increase between >1.35 and ≤1.5)

Q: For CCc1cccn2cc(-c3cc4ccc(N5CCN(C)CC5)cc4oc3=O)nc12 [Compound 358, 3-(8-ethylimidazo[1,2-a]pyridin-2-yl)-7-(4-methylpiperazin-1-yl)-2H-chromen-2-one], which EC (1.5-fold) [1, 2] is on record?
A: 1 to 3 µM

Q: And the melting point?
A: 137 to 141 °C

Q: What about the “maximum fold (Fold) increase” value (Smn protein) of the same compound?
A: *** (fold increase between >1.35 and ≤1.5)

Q: With COc1cccc(-c2cc3ccc(N4CCCN(C)CC4)cc3oc2=O)n1 [Compound 359, 3-(6-methoxypyridin-2-yl)-7-(4-methyl-1,4-diazepan-1-yl)-2H-chromen-2-one] as the compound, how does the EC (1.5-fold) [1, 2] read?
A: 3 to 30 µM

Q: What about the melting point of the same compound?
A: 155 to 158 °C

Q: What about the “maximum fold (Fold) increase” value (Smn protein) of the same compound?
A: * (maximum fold increase of ≤1.2)

Q: Which EC (1.5-fold) [1, 2] does the source give for CCN1CCN(c2ccc3cc(-c4cccc(OC)n4)c(=O)oc3c2)CC1 [Compound 360, 7-(4-ethylpiperazin-1-yl)-3-(6-methoxypyridin-2-yl)-2H-chromen-2-one] here?
A: 1 to 3 µM

Q: And the melting point?
A: 145 to 147 °C

Q: And the “maximum fold (Fold) increase” value (Smn protein)?
A: * (maximum fold increase of ≤1.2)

Q: Which results are given for COc1cccc(-c2cc3ccc(N4CCN[C@H](C)C4)cc3oc2=O)n1 [Compound 361, 3-(6-methoxypyridin-2-yl)-7-[(3R)-3-methylpiperazin-1-yl]-2H-chromen-2-one]?
A: EC (1.5-fold) [1, 2]: 1 to 3 µM; melting point: 150 to 152 °C; maximum fold (Fold) increase of Smn protein (Smn protein): ** (fold increase between >1.2 and ≤1.35)

Q: With COc1cccc(-c2cc3ccc(N4CCN[C@@H](C)C4)cc3oc2=O)n1 [Compound 362, 3-(6-methoxypyridin-2-yl)-7-[(3S)-3-methylpiperazin-1-yl]-2H-chromen-2-one] as the compound, how does the EC (1.5-fold) [1, 2] read?
A: 0.3 to 1 µM

Q: And the melting point?
A: 155 to 157 °C

Q: What about the “maximum fold (Fold) increase” value (Smn protein) of the same compound?
A: ** (fold increase between >1.2 and ≤1.35)

Q: For O=c1oc2cc(N3CCNCC3)ccc2cc1-c1cccs1 [Compound 363, 7-(piperazin-1-yl)-3-(thiophen-2-yl)-2H-chromen-2-one], which EC (1.5-fold) ([1]; 24 h) is on record?
A: 1 to 3 µM

Q: What about the melting point of the same compound?
A: 193 to 195 °C

Q: What about the “maximum fold (Fold) increase” value (Smn protein) of the same compound?
A: ** (fold increase between >1.2 and ≤1.35)

Q: Which EC (1.5-fold) ([1]; 24 h) does the source give for C[C@@H]1CN(c2ccc3cc(-c4cccs4)c(=O)oc3c2)C[C@H](C)N1 [Compound 364, 7-[(3R,5S)-3,5-dimethylpiperazin-1-yl]-3-(thiophen-2-yl)-2H-chromen-2-one] here?
A: 1 to 3 µM

Q: And the melting point?
A: 150 to 152 °C

Q: What about the “maximum fold (Fold) increase” value (Smn protein) of the same compound?
A: * (maximum fold increase of ≤1.2)

Q: What does the source list for CN1CCCN(c2cc(F)c3cc(-c4cc(F)cc(F)c4)c(=O)oc3c2)CC1 [Compound 365, 3-(3,5-difluorophenyl)-5-fluoro-7-(4-methyl-1,4-diazepan-1-yl)-2H-chromen-2-one]?
A: EC (1.5-fold) [1, 2]: 1 to 3 µM; melting point: 161 to 164 °C; maximum fold (Fold) increase of Smn protein (Smn protein): * (maximum fold increase of ≤1.2)

Q: What does the source list for CN1CCN(c2cc(F)c3cc(-c4nc5c(F)cccc5o4)c(=O)oc3c2)CC1 [Compound 366, 5-fluoro-3-(4-fluoro-1,3-benzoxazol-2-yl)-7-(4-methylpiperazin-1-yl)-2H-chromen-2-one]?
A: EC (1.5-fold) [1, 2]: 0.3 to 1 µM; melting point: 256 to 260 °C; maximum fold (Fold) increase of Smn protein (Smn protein): ** (fold increase between >1.2 and ≤1.35)

Q: With C[C@@H]1CN(c2cc(F)c3cc(-c4nc5c(F)cccc5o4)c(=O)oc3c2)C[C@H](C)N1 [Compound 367, 7-[(3R,5S)-3,5-dimethylpiperazin-1-yl]-5-fluoro-3-(4-fluoro-1,3-benzoxazol-2-yl)-2H-chromen-2-one] as the compound, how does the EC (1.5-fold) [1, 2] read?
A: 0.1 to 0.3 µM

Q: What about the melting point of the same compound?
A: 268 to 272 °C

Q: And the “maximum fold (Fold) increase” value (Smn protein)?
A: *** (fold increase between >1.35 and ≤1.5)

Q: For O=c1oc2cc(N3CCCNCC3)cc(F)c2cc1-c1nc2c(F)cccc2o1 [Compound 368, 7-(1,4-diazepan-1-yl)-5-fluoro-3-(4-fluoro-1,3-benzoxazol-2-yl)-2H-chromen-2-one], which EC (1.5-fold) [1, 2] is on record?
A: 0.3 to 1 µM

Q: What about the melting point of the same compound?
A: 240 to 245 °C

Q: What about the “maximum fold (Fold) increase” value (Smn protein) of the same compound?
A: ** (fold increase between >1.2 and ≤1.35)

Q: For CN1CCCN(c2cc(F)c3cc(-c4nc5c(F)cccc5o4)c(=O)oc3c2)CC1 [Compound 369, 5-fluoro-3-(4-fluoro-1,3-benzoxazol-2-yl)-7-(4-methyl-1,4-diazepan-1-yl)-2H-chromen-2-one], which EC (1.5-fold) [1, 2] is on record?
A: 0.1 to 0.3 µM

Q: What about the melting point of the same compound?
A: 224 to 228 °C

Q: What about the “maximum fold (Fold) increase” value (Smn protein) of the same compound?
A: ** (fold increase between >1.2 and ≤1.35)
